# Test results as given in patent US20110217262A1, “Treatment of Ocular Surface Disorders by Increasing Conjunctival Vascular Permeability” (priority 2010, published 2011).
# B1: Angiopoietin-2: candidate stimulator of vascular permeability (protein, UniProt O15123 19-496, looked up)
# Angiopoietin-2: YNNFRKSMDSIGKKQYQVQHGSCSYTFLLPEMDNCRSSSSPYVSNAVQRDAPLEYDDSVQRLQVLENIMENNTQWLMKLENYIQDNMKKEMVEIQQNAVQNQTAVMIEIGTNLLNQTAEQTRKLTDVEAQVLNQTTRLELQLLEHSLSTNKLEKQILDQTSEINKLQDKNSFLEKKVLAMEDKHIIQLQSIKEEKDQLQVLVSKQNSIIEELEKKIVTATVNNSVLQKQQHDLMETVNNLLTMMSTSNSAKDPTVAKEEQISFRDCAEVFKSGHTTNGIYTLTFPNSTEEIKAYCDMEAGGGGWTIIQRREDGSVDFQRTWKEYKVGFGNPSGEYWLGNEFVSQLTNQQRYVLKIHLKDWEGNEAYSLYEHFYLSSEELNYRIHLKGLTGTAGKISSISQPGNDFSTKDGDNDKCICKCSQMLTGGWWFDACGPSNLNGMYYPQRQNTNKFNGIKWYYWKGSGYSLKATTMMIRPADF
# What was measured:
# rabbit eyes = details: 1 day post-injection
# Protocol: Initial tests on some other candidate stimulators of vascular permeability was performed.
# [1] = test system: conjunctival blood vessels of rabbit eyes; experiment: Evans blue dye assay of conjunctival vascular permeability; format: in vivo, New Zealand White rabbits
# Protocol: Method 1: Evans blue dye assay. […] Animals were anesthetized with 2-5% isofluorane gas administered via mask. The eyes were sterilized with 5% iodine (povidone iodine (HUMCO, Texarkana, Tex., USA) diluted to 5% in BSS (Alcon, Fort Worth, Tex., USA)) and 2-3 drops of 0.5% ophthalmic proparacaine (Alcon, Fort Worth, Tex., USA) was administered as a topical anesthetic. Right eyes (OD) received subconjunctival injections of 50 microliters of C-NOD in 100% DMSO. Left eyes (OS) received subconjunctival injections of 50 microliters of 100% DMSO. 40 mg/kg of Evans blue dye (Sigma-Aldrich, St. Louis, Mo., USA) was then injected into an ear vein. Eyes were photographed and tear samples were collected at 1, 2 and 3 days post injection. Tears were collected by insertion of 7 mm discs of Whatman 3M filter paper (Whatman, Inc., Piscataway, N.J., USA) under the lower eyelid for 2 minutes. The filter paper discs were stored in 200 microliters of a phosphate buffered saline solution […] at 5-10° C. Absorption at 620 nm was used to quantify Evans blue dye in tears.
# An initial test of the ability of a nitric oxide donor B-NOD (Bing, R. J., Biochem. Biophys. Res. Comm. (2000) 275, 350) to increase conjunctival vascular permeability was performed. Fifty microliters of 100 mg/ml B-NOD in DMSO was injected OD, while DMSO vehicle was injected OS. Some eyes received no injection. Vascular permeability was assessed using the Evans blue dye assay. […] The difference between B-NOD and C-NOD may be due to the shorter half-life predicted for B-NOD.
# [2] = test system: epithelial corneal lesions in diabetic patients; details: prospective, randomized, masked clinical trial; cited from earlier work
# rabbit eyes (tears) = experiment: Total protein and serum albumin assay of tears; format: in vivo, New Zealand White rabbits
# Protocol: Prior to subconjunctival injection, tear samples were collected from the eyes of the rabbits. Tears were collected by simultaneous insertion of two 7 mm discs of Whatman 3M filter paper (Whatman, Inc., Piscataway, N.J., USA) under the lower eyelid for 2 minutes. The filter paper discs were stored in 200 microliters of a phosphate buffered saline solution containing 0.05% Tween and 0.02% sodium azide at 5-10° C. Animals were anesthetized with 2-5% isofluorane gas administered via mask. The eyes were sterilized with 5% iodine (povidone iodine (HUMCO, Texarkana, Tex., USA) diluted to 5% in BSS (Alcon, Fort Worth, Tex., USA)) and 2-3 drops of 0.5% ophthalmic proparacaine (Alcon, Fort Worth, Texan, USA) was administered as a topical anesthetic. Right eyes (OD) received subconjunctival injections of 50 microliters of C-NOD in 100% DMSO. Left eyes (OS) received subconjunctival injections of 50 microliters of 100% DMSO. Tear samples were collected at 1 hour, then every day for up to 5 days.
# Protein content of tears was assessed by two methods. First, total protein was measured using a Bio-Rad Protein Assay Kit (Bio-Rad Laboratories, Hercules, Calif., USA). Second, rabbit serum albumin was measured using an Assaypro Rabbit Albumin ELISA kit (Assaypro LLC, St. Charles, Mo., USA). Both kits were used according to the manufacturer's instructions. […]
molecule,measurement,setting,value
NCCc1c[nH]c2ccc(O)cc12 [Serotonin],Chemosis,rabbit eyes,Trace
same,Injection,rabbit eyes,None
same,Mucous discharge,rabbit eyes,None
O=C(Oc1cccc(CO[N+](=O)[O-])c1)c1ccccc1O [B-NOD],Evans blue dye in tears versus uninjected eyes,"[1]; 50 microliters of 100 mg/ml in DMSO, by 24 hours",This difference disappeared
same,Evans blue dye in tears versus uninjected eyes,"[1]; 50 microliters of 100 mg/ml in DMSO, six hours post-injection",more Evans blue dye than did uninjected eyes
same,Evans blue dye in tears versus vehicle injected eyes,"[1]; 50 microliters of 100 mg/ml in DMSO, throughout the experiment",about the same amount of Evans blue dye as did vehicle injected eyes
hyaluronic acid,epithelial healing time,[2],7.1 days
NCCc1c[nH]cn1 [Histamine],Injection,rabbit eyes,Trace
same,Mucous discharge,rabbit eyes,Trace
same,observable clinical response in the eyes,rabbit eyes; conditions not optimized,observable clinical response
CCOC(=O)Oc1ccccc1C(=O)Oc1cccc(CO[N+](=O)[O-])c1 [C-NOD],presence of subconjunctival dark Evans blue dye (photographs),"[1]; 66 mg/ml subconjunctival, 24, 48 and 72 hours post injection, versus vehicle injected eyes",evident
same,Evans blue dye in tears versus DMSO vehicle injected eyes,"[1]; absorption at 620 nm, in most cases, especially at 48 hours",more Evans blue dye present in the tears
same,total protein content of tears,"rabbit eyes (tears); 10 or 20 mg/cc, 1 day post injection, relative to uninjected eyes, N=4",significantly increased protein content of tears
same,proportion of serum albumin in tears (albumin to total protein),"rabbit eyes (tears); each concentration, relative to vehicle injection, 1 hour and 5 days post-injection",increased
B1,Chemosis,rabbit eyes,None
same,Injection,rabbit eyes,None
same,Mucous discharge,rabbit eyes,None
